Reference: patent publication US9618524B2, “Method, composition, isolation and identification of a plaque particle and related biomarker” (Plaxgen Inc., priority 2012, dated 2017)

Columns and labels:
Test in all cases: Mass spectroscopy proteomics, semi-quantitative binding affinity of serum proteins (plaqueproteome, Table 2)
Details in all cases: higher number = stronger affinity
[1] = target: T1, Abeta-42 plaque particles (Homo sapiens, UniProt P05067)
T1 construct: Abeta 1-42
Experimental: Next to isolate serum derived Abeta-42 plaque particles, the plasma or serum samples obtained from AD subjects were first centrifuged at 5,000 rpm for 5 min and the supernatants were transferred to new centrifuge tubes. Next, the supernatants were diluted in PBS to make 50% of the serum and plasma samples and used for incubation with Abeta-42 plaque oligomers/aggregates. Each assay was performed in 1 mL reaction (800 μL of 50% plasma or serum) and 200 μL (30 μg) of the Abeta-42 aggregates and the mixtures were incubated at 37° C. for 1 hr. To the mixture Thioflavin S dye (120 μg) was added and the sample was incubated for additional 30 min at 37° C. After the incubation, the mixture was directly used for sample acquisition using flow cytometer (FACS ARIA II, BD Biosciences, San Jose, Calif.). After initial detection of Abeta-42 plaque particles in the acquisition blot, gates were drawn in fluorescent dot blot to separately sort and isolate fluorescently labeled Abeta-42 particles.
(§1) For preparing trypsin digested peptide sequences, the isolated plaque particles were centrifuged at 10000 rpm for 5 min and the pellet containing plaque particles was resuspended in 100 μl PBS buffer. Stock solutions of digestion buffer (Ammonium Biocarbonate 50 mM), reducing buffer (DDT 100 mM) and alkylation buffer (lodoaceamide 100 mM) were prepared and stored at −20° C. for up to two months. For trypsin digestion, 100 μl of each plaque particles (2000 of Abeta-42, cholesterol, Tau and alpha-synuclein) were precipitated using cold acetone −80° C. by adding 4X's the volume. The samples were placed on dry ice for 10 min with intermittent vortex. Next, the samples were centrifuged at 4° C. at 10000 G for 10 min. Top layer of acetone was carefully removed from the tube with care not to disturb the plaque particles pellet. The samples were speed-vac for 10 min to ensure all acetone has been boiled away. The plaque particles pellet were reconstituted with 15 μl 8M Urea 100 mM Ammonium bicarbonate stock and 20 μl protease max solution. The protease max solution (Promega, Madison, Wis.) was prepared from stock by adding 60 μl 50 mM Ammonium bicarbonate and used for 3 solution digests (20 μl each). […] The tubes were incubated at 55° C. for 30 minutes. The tubes were then removed and brought to the room temperature followed by addition of 3.2 μl of 1M acrylamide and incubated at room temperature for 30 minutes. To the sample, 63 μL of 50 mM Ammonium bicarbonate was added for a final volume of 98 μl and 2 μl of trypsin (10 μg, Trypsin/Lys C Mix). After mixing the solution with pipet the samples were incubated at 37° C. overnight. After the overnight digest, the tryptic digest were quenched and acidified by adding 10 μl of 50% formic acid/water stock dilution. The samples were centrifuged at 10000 G for 2 minutes and purified using stage tip and used for MS/Mass analysis.
(§2) All MS/MS samples were analyzed using Sequest (Thermo Fisher Scientific, San Jose, Calif., USA; version 1.0). Sequest was set up to search the SUMS_uniprot_Human database (35847 entries) assuming the digestion enzyme strict trypsin. Sequest was searched with a fragment ion mass tolerance of 1.00 Da and a parent ion tolerance of 20 PPM. Propionamide of cysteine was specified in Sequest as a fixed modification. Oxidation of methionine and phospho of serine, threonine and tyrosine were specified in Sequest as variable modifications.
Scaffold (version Scaffold_4.2.1, Proteome Software Inc., Portland, Oreg.) was used to validate MS/MS based peptide and protein identifications. […] Protein probabilities were assigned by the Protein Prophet algorithm (Nesvizhskii, Al et al 2003). […] Proteins sharing significant peptide evidence were grouped into clusters. Proteins were annotated with GO terms from NCBI (downloaded Jan. 17, 2014).

[2] = system: High Density cholesterol (Chl Large) plaque particles; design: species or system human
Experimental: (§3) The goal was to isolate plaque particles synthesized in the bio-fluids in a relatively pure form to enable their subsequent use for identification of components that contribute to the plaque formation. In order to isolate cholesterol plaque particles, the plasma or serum samples obtained from atherosclerotic subjects were first centrifuged at 5,000 rpm for 5 min and the supernatants were transferred to new centrifuge tubes. Next, the supernatants were diluted in PBS to make 50% of the serum and used for incubation with cholesterol oligomers/aggregates. Each assay was performed in 1 mL reaction (800 μL of 50% plasma or serum) and 200 μL (30 μg) of the Cholesterol aggregates and the mixtures were incubated at 37° C. for 1 hr After the incubation, the mixture was directly used for sample acquisition using flow cytometer (FACS ARIA II, BD Biosciences, San Jose, Calif.). […] In order to isolate these fractions, three sets of gates were drawn in the acquisition blot to separately sort and isolate High density or high complex cholesterol particles, Low density or low complex cholesterol particles and both High and low density cholesterol particles together.
as §1, §2
(§4) Scaffold (version Scaffold_4.2.1, Proteome Software Inc., Portland, Oreg.) was used to validate MS/MS based peptide and protein identifications. […] Protein probabilities were assigned by the Protein Prophet algorithm (Nesvizhskii, Al et al 2003).

[3] = system: Low density cholesterol (Chl small) plaque particles; design: species or system human
Experimental: as §3, §1, §2, §4

[4] = target: T2, alpha-synuclein plaque particles (Homo sapiens, UniProt P37840)
T2 construct: 140 amino acids polypeptide
Experimental: To prepare oligomers/aggregates of human alpha-synuclein (140 amino acids polypeptide), 1 mg of the recombinant alpha-synuclein protein was suspended in 1 mL of PBS and the sample was incubated at 37° C. for 2 hrs. After incubation, all the samples were centrifuged for 5 min. at 5000 rpm to remove precipitate, if any, and the supernatant containing oligomers/aggregates were used in vitro plaque particles formation assay. For detecting alpha-synuclein plaque particles Thioflavin S (Ex/Em=430 nm/550 nm) amyloid binding fluorescent dye (10 μg) was used.
Similarly, to isolate alpha-synuclein plaque particles, diluted plasma or serum samples obtained from AD subjects were used for incubation with alpha-synuclein plaque oligomers/aggregates. Each assay was performed in 1 mL reaction (800 μL of 50% plasma or serum) and 200 μL (30 μg) of the alpha-synuclein aggregates and the mixtures were incubated at 37° C. for 1 hr. To the mixture Thioflavin S dye (120 μg) was added and the sample was incubated for additional 30 min at 37° C. After the incubation, the mixture was directly used for sample acquisition using flow cytometer (FACS ARIA II, BD Biosciences, San Jose, Calif.). After initial detection of alpha-synuclein plaque particles, gates were drawn in the acquisition blot to separately sort and isolate fluorescently labeled alpha-synuclein particles.
as §1, §2
Scaffold (version Scaffold_4.2.1, Proteome Software Inc., Portland, Oreg.) was used to validate MS/MS based peptide and protein identifications.

Tau plaque particles = system: Tau plaque particles; design: species or system human
Experimental: For Tau-74 (74-102) (Exon 3/Insert 2 domain) preparation, 1 mg of Tau-74 was suspended in 1 mL of PBS and the sample was incubated at 37° C. for 2 hrs. Similarly for preparing Tau-275 (275-305) (Repeat 2 domain) 1 mg of the peptide was suspended in 1 mL of PBS and the sample was incubated at 37° C. for 2 hrs. After incubation, all the samples were centrifuged for 5 min. at 5000 rpm to remove precipitate, if any, and the supernatant containing oligomers/aggregates were used for in vitro amyloid plaque particles formation assay. For detecting Tau plaque particles, Thioflavin S (Ex/Em=430 nm/550 nm) amyloid binding fluorescent dye (10 μg) was used in the assay.
Next, to isolate Tau plaque particles, as performed for Abeta-42 and Abeta-28 plaque particles isolation, diluted serum samples were used for incubation separately with Tau-45, Tau-74 and Tau-275 oligomers/aggregates. Each assay was performed in 1 mL reaction (800 μL of 50% plasma or serum) and 200 μL (30 μg) of each Tau aggregates and the mixtures were incubated at 37° C. for 1 hr. To the each mixture Thioflavin S dye (120 μg) was added and the sample was incubated for additional 30 min at 37° C. After the incubation, each sample was directly used for sample acquisition using flow cytometer (FACS ARIA II, BD Biosciences, San Jose, Calif.). After initial detection of Tau plaque particles, gates were drawn in the acquisition blot to separately sort and isolate fluorescently labeled Tau plaque particles.
as §1, §2

Row | Substance | Semi-quantitative analysis of proteins binding to different plaque particles: Abeta-42 [1] | Semi-quantitative analysis of proteins binding to different plaque particles: Chl Large [2] | Semi-quantitative analysis of proteins binding to different plaque particles: Chl small [3] | Semi-quantitative analysis of proteins binding to different plaque particles: Synuclein [4] | Semi-quantitative analysis of proteins binding to different plaque particles: Tau (Tau plaque particles)
1 | Cluster of Ig heavy chain V-III region TEI | 7 | 5 | 6 | 4 | 5
2 | Ig heavy chain V-III region BRO | 7 | 5 | 6 | 4 | 5
3 | Cluster of Complement C3 | 63 | 73 | 67 | 71 | 85
4 | Complement component C9 | 0 | 1 | 1 | 1 | 0
5 | Cluster of Haptoglobin | 25 | 29 | 31 | 24 | 26
6 | Apolipoprotein C-I (TPDVSSALDKLKEFGNTLEDKARELISRIKQSELSAKMREWFSETFQKVKEKLKIDS) | 2 | 1 | 1 | 0 | 1
7 | Alpha-1-acid glycoprotein 1 | 12 | 9 | 8 | 7 | 11
8 | Hornerin | 2 | 0 | 0 | 0 | 1
9 | Isoform 2 of Clusterin | 4 | 6 | 4 | 7 | 5
10 | Isoform Short of Heterogeneous nuclear ribonucleoprotein | 4 | 0 | 0 | 0 | 0
11 | Vitamin K-dependent protein S | 0 | 0 | 1 | 0 | 0
12 | Ig heavy chain V-III region TIL | 5 | 0 | 2 | 0 | 2
13 | Cluster of Histone H1.2 | 2 | 0 | 0 | 0 | 0
